# Laboratory results from patent publication US20240384268A1, “Oligonucleotides” (Hudson Institute of Medical Research, priority 2021, published 2024).
# In the oligonucleotide strings, read from the 5' end, every base follows the letter of its sugar. An asterisk marks phosphorothioate; unmarked linkages are phosphodiester. Other units and linkages are bracketed, terminal groups are in braces. A string of capitals states the bases alone. d = 2'-deoxy (DNA); m = 2'-O-methyl
# Biological target: T1, human TLR9 (Homo sapiens, UniProt Q9NR96)
# T1 construct: HA; host or cells: 293XL-hTLR9-HA (HEK293)
# T1 sequence (Q9NR96 26-1032): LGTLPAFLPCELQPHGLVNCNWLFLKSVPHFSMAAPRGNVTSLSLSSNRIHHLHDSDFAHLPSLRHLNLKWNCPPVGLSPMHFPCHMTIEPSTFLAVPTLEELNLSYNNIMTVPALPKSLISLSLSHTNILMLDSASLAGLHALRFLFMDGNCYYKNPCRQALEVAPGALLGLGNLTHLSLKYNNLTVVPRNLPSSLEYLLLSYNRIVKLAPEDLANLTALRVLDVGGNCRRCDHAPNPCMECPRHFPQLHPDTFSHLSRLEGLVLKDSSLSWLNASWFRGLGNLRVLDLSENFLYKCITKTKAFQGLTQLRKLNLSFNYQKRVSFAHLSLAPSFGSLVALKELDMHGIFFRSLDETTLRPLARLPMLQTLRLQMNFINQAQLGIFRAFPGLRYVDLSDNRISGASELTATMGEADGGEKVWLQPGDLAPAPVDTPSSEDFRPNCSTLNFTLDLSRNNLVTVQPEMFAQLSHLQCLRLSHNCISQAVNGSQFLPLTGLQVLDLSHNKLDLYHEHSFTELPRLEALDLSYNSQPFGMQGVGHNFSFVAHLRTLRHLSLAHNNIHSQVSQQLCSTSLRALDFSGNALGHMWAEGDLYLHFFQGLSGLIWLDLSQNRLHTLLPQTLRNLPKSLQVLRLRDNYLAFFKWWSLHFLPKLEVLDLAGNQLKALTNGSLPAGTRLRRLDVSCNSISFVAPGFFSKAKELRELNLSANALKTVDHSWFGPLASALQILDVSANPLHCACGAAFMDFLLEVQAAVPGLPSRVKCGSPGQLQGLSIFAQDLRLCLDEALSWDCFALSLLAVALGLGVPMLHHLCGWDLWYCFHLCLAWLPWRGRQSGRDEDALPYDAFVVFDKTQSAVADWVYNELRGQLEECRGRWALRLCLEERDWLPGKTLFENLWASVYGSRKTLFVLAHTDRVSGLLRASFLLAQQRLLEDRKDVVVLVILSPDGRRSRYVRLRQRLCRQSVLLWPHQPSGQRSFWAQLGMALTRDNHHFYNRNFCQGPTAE
# Test: HEK-TLR9 NF-κB-luciferase reporter, ODN2006 stimulation
# Format: cell-based
# Settings: for TLR9-500 nM: averaged NF-κB-Luciferase relative to ODN2006: HEK-TLR9, 500 nM ASO 45 min, then 200 nM ODN2006 overnight, percentage of ODN2006 only; for TLR9 100 nM: MOE-modified ASO at 100 nM; for TLR9 100 nM / TLR9 500 nM: averaged NF-κB-Luciferase relative to ODN2006 condition; for TLR9 500 nM: MOE-modified ASO at 500 nM
Substance,TLR9-500 nM: averaged NF-κB-Luciferase relative to ODN2006 [%],TLR9 100 nM,TLR9 500 nM
"mG*mG*mG*mU*mC*T*C*C*T*C*C*A*C*A*C*mC*mC*mU*mU*mC (GGGUCTCCTCCACACCCUUC; antisense; sugars from the 5' end m5 d10 m5, all phosphorothioate, methylation of C not given here) [[LINC-PINT]128]",94.51,–,–
"mG*mG*mU*mG*mG*C*C*A*C*A*G*G*C*A*A*mC*mG*mU*mC*mA (GGUGGCCACAGGCAACGUCA; antisense; sugars from the 5' end m5 d10 m5, all phosphorothioate, methylation of C not given here) [[CDKN2B-AS1]2196]",97.04,–,–
"GGGTATCGAAAGAGTCTGGA (antisense; 2'-MOE modified, pattern not given here) [EGFR-3908 MOE]",–,0.349,0.203
mC*mA*mC*mU*mG*T*A*T*T*T*T*A*T*T*A*mC*mA*mG*mA*mA (mC*mA*mC*mU*mG*dT*dA*dT*dT*dT*dT*dA*dT*dT*dA*mC*mA*mG*mA*mA; antisense) [[LINC-PINT]2990],117.42,–,–
mA*mA*mA*mG*mA*T*T*A*T*C*T*T*C*T*T*mU*mU*mA*mA*mU (mA*mA*mA*mG*mA*dT*dT*dA*dT*dC*dT*dT*dC*dT*dT*mU*mU*mA*mA*mU) [[CDKN2B-AS1]2132],63.14,–,–
mU*mG*mG*mC*mG*T*A*G*T*T*T*C*T*C*T*mU*mC*mC*mU*mC (mU*mG*mG*mC*mG*dT*dA*dG*dT*dT*dT*dC*dT*dC*dT*mU*mC*mC*mU*mC; antisense) [[LINC-PINT]937.1],79.89,–,–
mU*mC*mU*mC*mU*C*T*G*G*T*C*C*C*A*T*mC*mC*mC*mU*mU (mU*mC*mU*mC*mU*dC*dT*dG*dG*dT*dC*dC*dC*dA*dT*mC*mC*mC*mU*mU; antisense) [[LINC-PINT]110],74.25,–,–
mU*mC*mU*mC*mC*A*T*G*T*C*C*C*A*G*G*mC*mC*mU*mC*mC (mU*mC*mU*mC*mC*dA*dT*dG*dT*dC*dC*dC*dA*dG*dG*mC*mC*mU*mC*mC; antisense) [[CDKN2B-AS1]2230],118.93,–,–
mC*mC*mU*mU*mC*T*G*C*T*G*C*C*A*A*G*mC*mC*mC*mC*mA (mC*mC*mU*mU*mC*dT*dG*dC*dT*dG*dC*dC*dA*dA*dG*mC*mC*mC*mC*mA; antisense) [[LINC-PINT]94],96.69,–,–
mG*mU*mC*mC*mC*A*G*G*C*C*T*C*C*A*G*mU*mG*mU*mC*mU (mG*mU*mC*mC*mC*dA*dG*dG*dC*dC*dT*dC*dC*dA*dG*mU*mG*mU*mC*mU; antisense) [[CDKN2B-AS1]2223],67.61,–,–
"mA*mG*mA*mA*mA*G*A*A*G*C*A*A*A*G*A*mU*mU*mC*mA*mA (AGAAAGAAGCAAAGAUUCAA; sugars from the 5' end m5 d10 m5, all phosphorothioate, methylation of C not given here) [[CDKN2B-AS1]1519]",68.12,–,–
mC*mA*mG*mG*mC*C*T*C*C*A*G*T*G*T*C*mU*mU*mC*mU*mC (mC*mA*mG*mG*mC*dC*dT*dC*dC*dA*dG*dT*dG*dT*dC*mU*mU*mC*mU*mC; antisense) [[CDKN2B-AS1]2219],66.99,–,–
"AGTCGTAGTTGCTTCCTAAC (antisense; 2'-MOE modified, pattern not given here) [MB21D1-1181 MOE]",–,0.527,0.341
"CGGCATCCACCACGTCGTCC (antisense; 2'-MOE modified, pattern not given here) [EGFR-3267 MOE]",–,0.449,0.373
"CGGAGGTCTTGGCTTCGTGG (antisense; 2'-MOE modified, pattern not given here) [MB21D1-525 MOE]",–,0.938,0.556
mC*mC*mU*mA*mG*A*A*A*G*A*A*G*C*A*A*mA*mG*mA*mU*mU (mC*mC*mU*mA*mG*dA*dA*dA*dG*dA*dA*dG*dC*dA*dA*mA*mG*mA*mU*mU) [[CDKN2B-AS1]1522],42.44,–,–
mA*mG*mG*mC*mC*T*C*C*A*G*T*G*T*C*T*mU*mC*mU*mC*mC (mA*mG*mG*mC*mC*dT*dC*dC*dA*dG*dT*dG*dT*dC*dT*mU*mC*mU*mC*mC; antisense) [[CDKN2B-AS1]2218],81.24,–,–

Substance,TLR9-500 nM: averaged NF-κB-Luciferase relative to ODN2006 [%],TLR9 100 nM,TLR9 500 nM
"mC*mC*mA*mU*mG*T*C*C*C*A*G*G*C*C*T*mC*mC*mA*mG*mU (CCAUGTCCCAGGCCTCCAGU; sugars from the 5' end m5 d10 m5, all phosphorothioate, methylation of C not given here) [[CDKN2B-AS1]2227]",48.79,–,–
"TGGGCTGGAATCCGAGTTAT (antisense; 2'-MOE modified, pattern not given here) [EGFR-4705 MOE]",–,0.443,0.241
mG*mU*mC*mA*mA*A*C*C*T*A*G*A*A*A*G*mA*mA*mG*mC*mA (mG*mU*mC*mA*mA*dA*dC*dC*dT*dA*dG*dA*dA*dA*dG*mA*mA*mG*mC*mA; antisense) [[CDKN2B-AS1]1528],68.13,–,–
mC*mC*mC*mU*mA*A*T*G*C*T*T*T*C*C*T*mC*mU*mC*mC*mA (mC*mC*mC*mU*mA*dA*dT*dG*dC*dT*dT*dT*dC*dC*dT*mC*mU*mC*mC*mA; antisense) [[LINC-PINT1877 KL],86.47,–,–
mC*mA*mU*mC*mC*C*T*T*C*T*G*C*T*G*C*mC*mA*mA*mG*mC (mC*mA*mU*mC*mC*dC*dT*dT*dC*dT*dG*dC*dT*dG*dC*mC*mA*mA*mG*mC; antisense) [[LINC-PINT]98],65.09,–,–
mC*mU*mU*mC*mU*C*T*C*T*G*G*T*C*C*C*mA*mU*mC*mC*mC (mC*mU*mU*mC*mU*dC*dT*dC*dT*dG*dG*dT*dC*dC*dC*mA*mU*mC*mC*mC) [[LINC-PINT]112],64.35,–,–
mC*mA*mA*mG*mC*C*C*C*A*G*C*G*T*T*C*mC*mU*mC*mC*mG (mC*mA*mA*mG*mC*dC*dC*dC*dA*dG*dC*dG*dT*dT*dC*mC*mU*mC*mC*mG; antisense) [[LINC-PINT]83.1],93.79,–,–
"TTTGCACACTTCGTACCCAA (antisense; 2'-MOE modified, pattern not given here) [CAMSAP1-4916 MOE]",–,0.735,0.514
mU*mU*mC*mU*mC*T*C*T*G*G*T*C*C*C*A*mU*mC*mC*mC*mU (mU*mU*mC*mU*mC*dT*dC*dT*dG*dG*dT*dC*dC*dC*dA*mU*mC*mC*mC*mU; antisense) [[LINC-PINT]111],98.01,–,–
mG*mU*mC*mU*mC*C*T*C*C*A*C*A*C*C*C*mU*mU*mC*mU*mC (mG*mU*mC*mU*mC*dC*dT*dC*dC*dA*dC*dA*dC*dC*dC*mU*mU*mC*mU*mC; antisense) [[LINC-PINT]126],77.09,–,–
"ATGCCATCCACTTGATAGGC (antisense; 2'-MOE modified, pattern not given here) [EGFR-2874 MOE]",–,0.712,0.589
mC*mC*mU*mU*mC*T*C*T*C*T*G*GT*C*C*mC*mA*mU*mC*mC (CCUUCTCTCTGGTCCCAUCC; antisense; chemistry not fully specified) [[LINC-PINT]113],55.47,–,–
mG*mG*mU*mC*mU*C*C*T*C*C*A*C*A*C*C*mC*mU*mU*mC*mU (mG*mG*mU*mC*mU*dC*dC*dT*dC*dC*dA*dC*dA*dC*dC*mC*mU*mU*mC*mU; antisense) [[LINC-PINT]127],77.91,–,–
mU*mC*mC*mC*mA*A*C*T*C*T*T*C*T*A*A*mC*mU*mC*mG*mU (mU*mC*mC*mC*mA*dA*dC*dT*dC*dT*dT*dC*dT*dA*dA*mC*mU*mC*mG*mU; antisense) [[LINC-PINT]1284 KL],86.73,–,–
"GTCCAAGATCAGCAGTCTCA (antisense; 2'-MOE modified, pattern not given here) [CTNN2B-2341 MOE]",–,0.430,0.535
mA*mA*mU*mA*mU*C*T*G*C*T*G*C*C*C*A*mC*mC*mU*mU*mC (mA*mA*mU*mA*mU*dC*dT*dG*dC*dT*dG*dC*dC*dC*dA*mC*mC*mU*mU*mC; antisense) [[CDKN2B-AS1]832],70.72,–,–
